Ends that are not written are not given here.
Columns and labels:
[1] = tested on: tetanus toxin; parameters: species or system mice; settings: mouse, in vivo
[2] = tested on: TT; parameters: species or system mice; settings: mouse, in vivo
[3] = tested on: splenocytes; format: cell-based, mice
[4] = tested on: Spleen cells; test: Cytokine assay; format: cell-based, mice
[5] = Experiment 1, following restimulation

With FCIGRL [AT1002] the “protective antibody levels compared to immunization with TT alone” value [1] was “increased protective antibody levels”, the “anti-tetanus IgG subclass titers (IgG1, IgG2a): shift toward a Th1 response” value [2] was “No indication of a shift toward a Th1 response” and the “anti-tetanus response (tetanus IgG titer) compared to tetanus toxoid alone” value [2] was “significantly enhances the anti-tetanus response in a dose-dependent manner”. For the same substance, the “anti-tetanus response (tetanus IgG titer), effect of higher dose” value [2] was “does not increaser the anti-tetanus response”, the “proliferation of spleen cells on restimulation with immunizing antigen (Stimulation Index)” value [3] was “induces the strongest cell proliferation response” and the “IL-5 production compared to groups immunized with toxoid (TT) alone” value [4, 5] was “does not increase production”. For the same substance, the “IL-10 production compared to groups immunized with toxoid (TT) alone” value [4, 5] was “does not increase production”, the “IL-6 production by spleen cells compared to groups immunized with toxoid (TT) alone” value ([4]; Experiment 1, restimulation with TT 0-100 μg/ml, FIG. 8A) was “does increase IL-6 production” and the “IFN-γ production by spleen cells compared to groups immunized with toxoid (TT) alone” value ([4]; Experiment 1, restimulation with TT 0-100 μg/ml, FIG. 8B) was “does not increase IFN-γ production”. The “IL-6 production by spleen cells compared to groups immunized with toxoid (TT) alone” value ([4]; Experiment 2, restimulation with TT 0-100 μg/ml, FIG. 14A) was “does increase IL-6 production”.

— patent US20140294894A1 (priority 2007, published 2014)
